Reference: ChEMBL document CHEMBL4765227, “Hit to lead optimization of a series of N-[4-(1,3-benzothiazol-2-yl)phenyl]acetamides as monoacylglycerol lipase inhibitors with potential anticancer activity” (Eur J Med Chem, 2016)

Columns and labels:
Assay type in all cases: functional
Settings in all cases: read-out: GI
CCRF-CEM = assay: Growth inhibition of human CCRF-CEM cells at 10 uM incubated for 48 hrs by sulforhodamine B assay relative to control
K562 = assay: Growth inhibition of human K562 cells at 10 uM incubated for 48 hrs by sulforhodamine B assay relative to control
RPMI-8226 = assay: Growth inhibition of human RPMI-8226 cells at 10 uM incubated for 48 hrs by sulforhodamine B assay relative to control
A549 = assay: Growth inhibition of human A549/ATCC cells at 10 uM incubated for 48 hrs by sulforhodamine B assay relative to control
HOP-92 = assay: Growth inhibition of human HOP-92 cells at 10 uM incubated for 48 hrs by sulforhodamine B assay relative to control
NCI-H226 = assay: Growth inhibition of human NCI-H226 cells at 10 uM incubated for 48 hrs by sulforhodamine B assay relative to control
NCI-H23 = assay: Growth inhibition of human NCI-H23 cells at 10 uM incubated for 48 hrs by sulforhodamine B assay relative to control
NCI-H322M = assay: Growth inhibition of human NCI-H322M cells at 10 uM incubated for 48 hrs by sulforhodamine B assay relative to control
NCI-H460 = assay: Growth inhibition of human NCI-H460 cells at 10 uM incubated for 48 hrs by sulforhodamine B assay relative to control
NCI-H522 = assay: Growth inhibition of human NCI-H522 cells at 10 uM incubated for 48 hrs by sulforhodamine B assay relative to control
COLO 205 = assay: Growth inhibition of human COLO 205 cells at 10 uM incubated for 48 hrs by sulforhodamine B assay relative to control
HCC 2998 = assay: Growth inhibition of human HCC 2998 cells at 10 uM incubated for 48 hrs by sulforhodamine B assay relative to control
HCT-116 = assay: Growth inhibition of human HCT-116 cells at 10 uM incubated for 48 hrs by sulforhodamine B assay relative to control
HCT-15 = assay: Growth inhibition of human HCT-15 cells at 10 uM incubated for 48 hrs by sulforhodamine B assay relative to control
HT-29 = assay: Growth inhibition of human HT-29 cells at 10 uM incubated for 48 hrs by sulforhodamine B assay relative to control
KM12 = assay: Growth inhibition of human KM12 cells at 10 uM incubated for 48 hrs by sulforhodamine B assay relative to control
SW-620 = assay: Growth inhibition of human SW-620 cells at 10 uM incubated for 48 hrs by sulforhodamine B assay relative to control
SF-268 = assay: Growth inhibition of human SF-268 cells at 10 uM incubated for 48 hrs by sulforhodamine B assay relative to control
SNB-19 = assay: Growth inhibition of human SNB-19 cells at 10 uM incubated for 48 hrs by sulforhodamine B assay relative to control
SNB-75 = assay: Growth inhibition of human SNB-75 cells at 10 uM incubated for 48 hrs by sulforhodamine B assay relative to control
LOX IMVI = assay: Growth inhibition of human LOX IMVI cells at 10 uM incubated for 48 hrs by sulforhodamine B assay relative to control
Malme-3M = assay: Growth inhibition of human Malme-3M cells at 10 uM incubated for 48 hrs by sulforhodamine B assay relative to control
M14 = assay: Growth inhibition of human M14 cells at 10 uM incubated for 48 hrs by sulforhodamine B assay relative to control
MDA-MB-435 = assay: Growth inhibition of human MDA-MB-435 cells at 10 uM incubated for 48 hrs by sulforhodamine B assay relative to control
SK-MEL-28 = assay: Growth inhibition of human SK-MEL-28 cells at 10 uM incubated for 48 hrs by sulforhodamine B assay relative to control
SK-MEL-5 = assay: Growth inhibition of human SK-MEL-5 cells at 10 uM incubated for 48 hrs by sulforhodamine B assay relative to control
UACC-257 = assay: Growth inhibition of human UACC-257 cells at 10 uM incubated for 48 hrs by sulforhodamine B assay relative to control
UACC-62 = assay: Growth inhibition of human UACC-62 cells at 10 uM incubated for 48 hrs by sulforhodamine B assay relative to control
IGROV-1 = assay: Growth inhibition of human IGROV-1 cells at 10 uM incubated for 48 hrs by sulforhodamine B assay relative to control
OVCAR-3 = assay: Growth inhibition of human OVCAR-3 cells at 10 uM incubated for 48 hrs by sulforhodamine B assay relative to control
OVCAR-4 = assay: Growth inhibition of human OVCAR-4 cells at 10 uM incubated for 48 hrs by sulforhodamine B assay relative to control
OVCAR-5 = assay: Growth inhibition of human OVCAR-5 cells at 10 uM incubated for 48 hrs by sulforhodamine B assay relative to control
NCI/ADR-RES = assay: Growth inhibition of human NCI/ADR-RES cells at 10 uM incubated for 48 hrs by sulforhodamine B assay relative to control
SK-OV-3 = assay: Growth inhibition of human SK-OV-3 cells at 10 uM incubated for 48 hrs by sulforhodamine B assay relative to control
786-0 = assay: Growth inhibition of human 786-0 cells at 10 uM incubated for 48 hrs by sulforhodamine B assay relative to control
ACHN = assay: Growth inhibition of human ACHN cells at 10 uM incubated for 48 hrs by sulforhodamine B assay relative to control
CAKI-1 = assay: Growth inhibition of human CAKI-1 cells at 10 uM incubated for 48 hrs by sulforhodamine B assay relative to control
RXF 393 = assay: Growth inhibition of human RXF 393 cells at 10 uM incubated for 48 hrs by sulforhodamine B assay relative to control
TK-10 = assay: Growth inhibition of human TK-10 cells at 10 uM incubated for 48 hrs by sulforhodamine B assay relative to control
DU-145 = assay: Growth inhibition of human DU-145 cells at 10 uM incubated for 48 hrs by sulforhodamine B assay relative to control
MCF7 = assay: Growth inhibition of human MCF7 cells at 10 uM incubated for 48 hrs by sulforhodamine B assay relative to control
MDA-MB-231 = assay: Growth inhibition of human MDA-MB-231 cells at 10 uM incubated for 48 hrs by sulforhodamine B assay relative to control
BT-549 = assay: Growth inhibition of human BT-549 cells at 10 uM incubated for 48 hrs by sulforhodamine B assay relative to control
T47D = assay: Growth inhibition of human T47D cells at 10 uM incubated for 48 hrs by sulforhodamine B assay relative to control

## NS(=O)(=O)c1ccc(NCC(=O)Nc2ccc(-c3nc4ccccc4s3)cc2)cc1
CCRF-CEM
  inhibition of growth at 10 µM: 93.8%
K562
  inhibition of growth at 10 µM: 91.6%
RPMI-8226
  inhibition of growth at 10 µM: 63.3%
A549
  inhibition of growth at 10 µM: 7.37%
HOP-92
  inhibition of growth at 10 µM: 26.5%
NCI-H226
  inhibition of growth at 10 µM: 16.3%
NCI-H23
  inhibition of growth at 10 µM: 25.3%
NCI-H322M
  inhibition of growth at 10 µM: 12%
NCI-H460
  inhibition of growth at 10 µM: 7.45%
NCI-H522
  inhibition of growth at 10 µM: 164%
COLO 205
  inhibition of growth at 10 µM: 1.47%
HCC 2998
  inhibition of growth at 10 µM: 12.4%
HCT-116
  inhibition of growth at 10 µM: 74.9%
HCT-15
  inhibition of growth at 10 µM: 53.4%
HT-29
  inhibition of growth at 10 µM: 25.5%
KM12
  inhibition of growth at 10 µM: 38.4%
SW-620
  inhibition of growth at 10 µM: 36.3%
SF-268
  inhibition of growth at 10 µM: 74.9%
SNB-19
  inhibition of growth at 10 µM: 25.7%
SNB-75
  inhibition of growth at 10 µM: 30.5%
LOX IMVI
  inhibition of growth at 10 µM: 87%
Malme-3M
  inhibition of growth at 10 µM: 46.4%
M14
  inhibition of growth at 10 µM: 54.4%
MDA-MB-435
  inhibition of growth at 10 µM: 23%
SK-MEL-28
  inhibition of growth at 10 µM: 0.58%
SK-MEL-5
  inhibition of growth at 10 µM: 28.7%
UACC-257
  inhibition of growth at 10 µM: 2.83%
UACC-62
  inhibition of growth at 10 µM: 62%
IGROV-1
  inhibition of growth at 10 µM: 41%
OVCAR-3
  inhibition of growth at 10 µM: 65.7%
OVCAR-4
  inhibition of growth at 10 µM: 32.8%
OVCAR-5
  inhibition of growth at 10 µM: -5.64%
NCI/ADR-RES
  inhibition of growth at 10 µM: 5.97%
SK-OV-3
  inhibition of growth at 10 µM: -5.77%
786-0
  inhibition of growth at 10 µM: 87.9%
ACHN
  inhibition of growth at 10 µM: -4.96%
CAKI-1
  inhibition of growth at 10 µM: 7.14%
RXF 393
  inhibition of growth at 10 µM: 0.08%
TK-10
  inhibition of growth at 10 µM: -5.51%
DU-145
  inhibition of growth at 10 µM: 53%
MCF7
  inhibition of growth at 10 µM: 72.4%
MDA-MB-231
  inhibition of growth at 10 µM: 55%
BT-549
  inhibition of growth at 10 µM: 85.5%
T47D
  inhibition of growth at 10 µM: 53.6%

## O=C(CNc1nc(-c2ccc(Cl)cc2)cs1)Nc1ccc(-c2nc3ccccc3s2)cc1
CCRF-CEM
  inhibition of growth at 10 µM: 7.04%
K562
  inhibition of growth at 10 µM: 3.58%
RPMI-8226
  inhibition of growth at 10 µM: 12.6%
A549
  inhibition of growth at 10 µM: 0.99%
HOP-92
  inhibition of growth at 10 µM: 7.09%
NCI-H226
  inhibition of growth at 10 µM: 19.7%
NCI-H23
  inhibition of growth at 10 µM: 12.4%
NCI-H322M
  inhibition of growth at 10 µM: 8.37%
NCI-H460
  inhibition of growth at 10 µM: 8.75%
NCI-H522
  inhibition of growth at 10 µM: 6.86%
COLO 205
  inhibition of growth at 10 µM: 6.21%
HCC 2998
  inhibition of growth at 10 µM: 2.47%
HCT-116
  inhibition of growth at 10 µM: 4.49%
HCT-15
  inhibition of growth at 10 µM: -10.2%
HT-29
  inhibition of growth at 10 µM: -8.34%
KM12
  inhibition of growth at 10 µM: 0.97%
SW-620
  inhibition of growth at 10 µM: 0.12%
SF-268
  inhibition of growth at 10 µM: 9.23%
SNB-19
  inhibition of growth at 10 µM: 1.83%
SNB-75
  inhibition of growth at 10 µM: 22.2%
LOX IMVI
  inhibition of growth at 10 µM: 4.39%
Malme-3M
  inhibition of growth at 10 µM: -1.86%
M14
  inhibition of growth at 10 µM: 11.8%
MDA-MB-435
  inhibition of growth at 10 µM: -4.48%
SK-MEL-28
  inhibition of growth at 10 µM: -10.9%
SK-MEL-5
  inhibition of growth at 10 µM: 12.3%
UACC-257
  inhibition of growth at 10 µM: -0.39%
UACC-62
  inhibition of growth at 10 µM: 8.08%
IGROV-1
  inhibition of growth at 10 µM: 40.9%
OVCAR-3
  inhibition of growth at 10 µM: 5.97%
OVCAR-4
  inhibition of growth at 10 µM: 29.5%
OVCAR-5
  inhibition of growth at 10 µM: 9.63%
NCI/ADR-RES
  inhibition of growth at 10 µM: 5.81%
SK-OV-3
  inhibition of growth at 10 µM: 4.97%
786-0
  inhibition of growth at 10 µM: -9.09%
ACHN
  inhibition of growth at 10 µM: -5.08%
CAKI-1
  inhibition of growth at 10 µM: 5.79%
RXF 393
  inhibition of growth at 10 µM: -6.02%
TK-10
  inhibition of growth at 10 µM: 33.5%
DU-145
  inhibition of growth at 10 µM: 5.04%
MCF7
  inhibition of growth at 10 µM: 70.2%
MDA-MB-231
  inhibition of growth at 10 µM: 15.3%
BT-549
  inhibition of growth at 10 µM: -6.9%
T47D
  inhibition of growth at 10 µM: 43.9%
